From ChEMBL document CHEMBL5120776, “Asymmetric Total Synthesis of Griseofamine B and Its Three Stereoisomers” (2022)

Columns and labels:
Format in all cases: functional
[1] = test system: Staphylococcus aureus; assay: Antibacterial activity against Staphylococcus aureus ATCC 29213 assessed as inhibition of bacterial growth incubated for 18 hrs by two-fold dilution assay
[2] = test system: Staphylococcus aureus; assay: Antibacterial activity against Staphylococcus aureus […] assessed as inhibition of bacterial growth incubated for 18 hrs by two-fold dilution assay
[3] = test system: Staphylococcus aureus; assay: Antibacterial activity against methicillin-resistant Staphylococcus aureus ATCC 33591 assessed as inhibition of bacterial growth incubated for 18 hrs by two-fold dilution assay
[4] = test system: Staphylococcus aureus; assay: Antibacterial activity against methicillin-resistant Staphylococcus aureus […] assessed as inhibition of bacterial growth incubated for 18 hrs by two-fold dilution assay
[5] = test system: Staphylococcus epidermidis; assay: Antibacterial activity against Staphylococcus epidermidis ATCC 12228 assessed as inhibition of bacterial growth incubated for 18 hrs by two-fold dilution assay
[6] = test system: Staphylococcus epidermidis; assay: Antibacterial activity against methicillin-resistant Staphylococcus epidermidis clinical isolate 16-5 assessed as inhibition of bacterial growth incubated for 18 hrs by two-fold dilution assay
[7] = test system: Enterococcus faecalis; assay: Antibacterial activity against Enterococcus faecalis ATCC 29212 assessed as inhibition of bacterial growth incubated for 18 hrs by two-fold dilution assay
[8] = test system: Enterococcus faecalis; assay: Antibacterial activity against vancomycin-resistant Enterococcus faecalis ATCC 51299 assessed as inhibition of bacterial growth incubated for 18 hrs by two-fold dilution assay
[9] = test system: Escherichia coli; assay: Antibacterial activity against Escherichia coli ATCC 25922 assessed as inhibition of bacterial growth incubated for 18 hrs by two-fold dilution assay
[10] = test system: Enterococcus faecium; assay: Antibacterial activity against vancomycin-resistant Enterococcus faecium ATCC 700221 assessed as inhibition of bacterial growth incubated for 18 hrs by two-fold dilution assay
[11] = test system: Enterococcus faecium; assay: Antibacterial activity against Enterococcus faecium clinical isolate 16-5 assessed as inhibition of bacterial growth incubated for 18 hrs by two-fold dilution assay

Measured: MIC

CC(C)=C[C@H]1c2cccc3[nH]cc(c23)C[C@H]2C(=O)/C(=C(\C)O)C(=O)N21
≥ 64 µg/mL: all assays above

CC(C)=C[C@@H]1c2cccc3[nH]cc(c23)C[C@@H]2C(=O)/C(=C(\C)O)C(=O)N21
≥ 64 µg/mL: all assays above

CC(C)=C[C@H]1c2cccc3[nH]cc(c23)C[C@@H]2C(=O)/C(=C(\C)O)C(=O)N21
≥ 64 µg/mL: all assays above

CC(C)=C[C@@H]1c2cccc3[nH]cc(c23)C[C@H]2C(=O)/C(=C(\C)O)C(=O)N12
≥ 64 µg/mL: all assays above
